# According to patent US11214594B2, “Antimicrobial peptide having synergistic antibacterial effect with antibiotics on multidrug resistant bacteria, and use thereof” (priority 2016, dated 2022):
# Read-outs that look alike come from different tables or passages of the source. Where a SMILES comes first, the peptide text is derived from it. [ ]: non-standard residue; d: D form.
# Columns and labels:
# [1] = tested on: E. coli; experiment: microbe, parasite or virus in culture; type: cell-based, Escherichia coli; details: 16 h
# In short: (§1)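 Broth microdilution in MH medium: strains diluted to 2×10^6 CFU were mixed with equal volumes of twofold serial peptide dilutions in MH medium. MIC was taken as the lowest peptide concentration preventing bacterial growth.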
# [2] = tested on: MDREC 1229; experiment: microbe, parasite or virus in culture; type: cell-based, Escherichia coli
# In short: as §1
# [3] = tested on: P. aeruginosa; experiment: microbe, parasite or virus in culture; type: cell-based, Pseudomonas aeruginosa
# In short: as §1
# [4] = tested on: A. baumannii; experiment: microbe, parasite or virus in culture; type: cell-based, Acinetobacter baumannii
# In short: as §1
# [5] = tested on: MDRAB 12035; experiment: microbe, parasite or virus in culture; type: cell-based, Acinetobacter baumannii
# In short: as §1
# [6] = tested on: MDRST 8009; type: cell-based, Salmonella typhimurium; details: agent alone
# In short: as §1
# [7] = tested on: B. subtilis; experiment: microbe, parasite or virus in culture; type: cell-based, Bacillus subtilis
# In short: as §1
# [8] = tested on: S. epidermidis; experiment: microbe, parasite or virus in culture; type: cell-based, Staphylococcus epidermidis
# In short: as §1
# [9] = tested on: S. aureus; experiment: microbe, parasite or virus in culture; type: cell-based, Staphylococcus aureus
# In short: as §1
# [10] = tested on: E. coli; experiment: MIC of antibiotic during combined treatment with antimicrobial peptide; type: cell-based, Escherichia coli; details: for Antibiotic MIC, Erythromycin / Antibiotic MIC, Linezolid / Antibiotic MIC, Vancomycin: E. coli
# In short: (§2)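 Checkerboard-type MIC of peptide–antibiotic mixtures in MH medium: the antibiotic was serially diluted in MH medium and added to wells, then the reversed arrangement was also tested.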
# [11] = tested on: A. baumannii; experiment: as above; type: cell-based, Acinetobacter baumannii; details: for Antibiotic MIC, Erythromycin / Antibiotic MIC, Linezolid / Antibiotic MIC, Vancomycin: A. baumannii
# In short: as §2
# [12] = tested on: E. coli; type: cell-based, Escherichia coli; details: E. coli
# In short: (§3)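 Strains in MH medium at 2×10^6 CFU/ml were mixed with peptide diluted stepwise (2:1) from its MIC, then antibiotic dilutions in MH medium were added to give the antibiotic MIC. The reversed set-up, peptide titrated against fixed antibiotic, gave the peptide MIC.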
# [13] = tested on: MDREC 1229; type: cell-based, Escherichia coli
# In short: as §3
# [14] = tested on: A. baumannii; experiment: MIC of antimicrobial peptide during combined treatment with antibiotic; type: cell-based, Acinetobacter baumannii
# In short: as §3
# [15] = tested on: MDRAB 12035; experiment: as above; type: cell-based, Acinetobacter baumannii
# In short: as §3
# [16] = combined with peptide at 1 μg/ml
# [17] = combined with peptide at 2 μg/ml
# [18] = combined with peptide at 4 μg/ml
# [19] = combined with peptide at 6 μg/ml
# [20] = combined with peptide at 8 μg/ml
# [21] = combined with peptide at 16 μg/ml
# [22] = combined with peptide at 32 μg/ml
# [23] = combined with peptide at 64 μg/ml
# [24] = linezolid 64 μg/ml (Conc./MIC 1/8)
# [25] = linezolid 512 μg/ml (Conc./MIC 1)
# [26] = vancomycin 512 μg/ml (Conc./MIC 1/2)
# [27] = vancomycin 1024 μg/ml (Conc./MIC 1)
# [28] = erythromycin 4 μg/ml (Conc./MIC 1/8)
# [29] = erythromycin 8 μg/ml (Conc./MIC 1/4)
# [30] = erythromycin 16 μg/ml (Conc./MIC 1/2)
# [31] = erythromycin 32 μg/ml (Conc./MIC 1)
smiles,measurement,setting,value
"CC[C@H](C)[C@H](NC(=O)[C@H](CCCCN)NC(=O)[C@H](Cc1c[nH]c2ccccc12)NC(=O)[C@@H](N)CCCNC(=N)N)C(=O)N[C@@H](Cc1ccccc1)C(=O)N[C@@H](CCCCN)C(=O)N[C@@H](CCCCN)C(=O)N[C@H](C(=O)N[C@H](CCCCN)C(=O)N[C@@H](CCCCN)C(=O)N[C@@H](CC(C)C)C(=O)N[C@@H](CC(C)C)C(=O)N[C@@H](Cc1c[nH]cn1)C(=O)N[C@@H](CCC(=O)O)C(=O)N[C@@H](Cc1ccccc1)C(=O)N[C@@H](CCCCN)C(=O)N[C@@H](CCCCN)C(=O)N[C@@H](Cc1ccccc1)C(N)=O)[C@@H](C)CC [PapMA-19, RWK IFK KIk KLL HEF KKF-NH2] (H-RWKIFKKI[dK]KLLHEFKKF-NH2; N-terminus assumed)",Minimal inhibitory concentration MIC,[1],32 µg/mL
same,Minimal inhibitory concentration MIC,[2],32 µg/mL
same,"Peptide MIC, peptide alone",[2],32 µg/mL
same,Minimal inhibitory concentration MIC,[3],64 µg/mL
same,Minimal inhibitory concentration MIC,[4],16 µg/mL
same,"Peptide MIC, peptide alone",[4],16 µg/mL
same,Antibacterial activity relative to PapMA-1,[4]; A. baumannii and S. typhimurium,at least twice as high
same,Minimal inhibitory concentration MIC,[5],32 µg/mL
same,"Peptide MIC, peptide alone",[5],32 µg/mL
same,Minimal inhibitory concentration MIC,[6],64 µg/mL
same,Minimal inhibitory concentration MIC,[7],>128 µg/mL
same,Minimal inhibitory concentration MIC,[8],>128 µg/mL
same,Minimal inhibitory concentration MIC,[9],>128 µg/mL
same,Synergistic effect of antibacterial activity with existing antibiotics compared with PapMA-1,[10]; E. coli and MDREC1229,higher level than the PapMA-1 peptide
same,"Antibiotic MIC, Erythromycin",[10]; erythromycin combined with peptide at 1 μg/ml,64 µg/mL
same,"Antibiotic MIC, Erythromycin",[10]; erythromycin combined with peptide at 2 μg/ml,32 µg/mL
same,"Antibiotic MIC, Erythromycin",[10]; erythromycin combined with peptide at 4 μg/ml,8 µg/mL
same,"Antibiotic MIC, Erythromycin",[10]; erythromycin combined with peptide at 6 μg/ml,2 µg/mL
same,"Antibiotic MIC, Erythromycin",[10]; erythromycin combined with peptide at 8 μg/ml,1 µg/mL
same,"Antibiotic MIC, Erythromycin",[10]; erythromycin combined with peptide at 16 μg/ml,0.25 µg/mL
same,"Antibiotic MIC, Erythromycin",[10]; erythromycin combined with peptide at 32 μg/ml,0 µg/mL
same,"Antibiotic MIC, Erythromycin",[10]; erythromycin combined with peptide at 64 μg/ml,0 µg/mL
same,"Antibiotic MIC, Linezolid",[10]; linezolid combined with peptide at 1 μg/ml,>128 µg/mL
same,"Antibiotic MIC, Linezolid",[10]; linezolid combined with peptide at 2 μg/ml,64 µg/mL
same,"Antibiotic MIC, Linezolid",[10]; linezolid combined with peptide at 4 μg/ml,32 µg/mL
same,"Antibiotic MIC, Linezolid",[10]; linezolid combined with peptide at 6 μg/ml,8 µg/mL
same,"Antibiotic MIC, Linezolid",[10]; linezolid combined with peptide at 8 μg/ml,8 µg/mL
same,"Antibiotic MIC, Linezolid",[10]; linezolid combined with peptide at 16 μg/ml,4 µg/mL
same,"Antibiotic MIC, Linezolid",[10]; linezolid combined with peptide at 32 μg/ml,0 µg/mL
same,"Antibiotic MIC, Linezolid",[10]; linezolid combined with peptide at 64 μg/ml,0 µg/mL
same,"Antibiotic MIC, Vancomycin",[10]; vancomycin combined with peptide at 1 μg/ml,>128 µg/mL
same,"Antibiotic MIC, Vancomycin",[10]; vancomycin combined with peptide at 2 μg/ml,128 µg/mL
same,"Antibiotic MIC, Vancomycin",[10]; vancomycin combined with peptide at 4 μg/ml,64 µg/mL
same,"Antibiotic MIC, Vancomycin",[10]; vancomycin combined with peptide at 6 μg/ml,8 µg/mL
same,"Antibiotic MIC, Vancomycin",[10]; vancomycin combined with peptide at 8 μg/ml,8 µg/mL
same,"Antibiotic MIC, Vancomycin",[10]; vancomycin combined with peptide at 16 μg/ml,4 µg/mL
same,"Antibiotic MIC, Vancomycin",[10]; vancomycin combined with peptide at 32 μg/ml,0 µg/mL
same,"Antibiotic MIC, Vancomycin",[10]; vancomycin combined with peptide at 64 μg/ml,0 µg/mL
same,Synergistic effect of antibacterial activity with existing antibiotics compared with PapMA-1,[11]; A. baumannii and MDRAB 12035,higher level than the PapMA-1 peptide
same,"Antibiotic MIC, Erythromycin",[11]; [16],32 µg/mL
same,"Antibiotic MIC, Linezolid",[11]; [16],>128 µg/mL
same,"Antibiotic MIC, Vancomycin",[11]; [16],>128 µg/mL
same,"Antibiotic MIC, Erythromycin",[11]; [17],16 µg/mL
same,"Antibiotic MIC, Linezolid",[11]; [17],64 µg/mL
same,"Antibiotic MIC, Vancomycin",[11]; [17],128 µg/mL
same,"Antibiotic MIC, Erythromycin",[11]; [18],4 µg/mL
same,"Antibiotic MIC, Linezolid",[11]; [18],16 µg/mL
same,"Antibiotic MIC, Vancomycin",[11]; [18],32 µg/mL
same,"Antibiotic MIC, Erythromycin",[11]; [19],2 µg/mL
same,"Antibiotic MIC, Linezolid",[11]; [19],8 µg/mL
same,"Antibiotic MIC, Vancomycin",[11]; [19],8 µg/mL
same,"Antibiotic MIC, Erythromycin",[11]; [20],0.25 µg/mL
same,"Antibiotic MIC, Linezolid",[11]; [20],4 µg/mL
same,"Antibiotic MIC, Vancomycin",[11]; [20],4 µg/mL
same,"Antibiotic MIC, Erythromycin",[11]; [21],0 µg/mL
same,"Antibiotic MIC, Linezolid",[11]; [21],0 µg/mL
same,"Antibiotic MIC, Vancomycin",[11]; [21],0 µg/mL
same,"Antibiotic MIC, Erythromycin",[11]; [22],0 µg/mL
same,"Antibiotic MIC, Linezolid",[11]; [22],0 µg/mL
same,"Antibiotic MIC, Vancomycin",[11]; [22],0 µg/mL
same,"Antibiotic MIC, Erythromycin",[11]; [23],0 µg/mL
same,"Antibiotic MIC, Linezolid",[11]; [23],0 µg/mL
same,"Antibiotic MIC, Vancomycin",[11]; [23],0 µg/mL
same,Peptide MIC,[12]; with Erythromycin […] (Conc./MIC 1),0 µg/mL
same,Peptide MIC,[12]; with Linezolid […] (Conc./MIC 1),0 µg/mL
same,Peptide MIC,[12]; with Vancomycin 1024 μg/ml (Conc./MIC 1),0 µg/mL
same,Peptide MIC during treatment with antibiotic,[13]; erythromycin 32 μg/ml (Conc./MIC 1/8),2 µg/mL
same,Peptide MIC during treatment with antibiotic,[13]; erythromycin 64 μg/ml (Conc./MIC 1/4),2 µg/mL
same,Peptide MIC during treatment with antibiotic,[13]; erythromycin […] (Conc./MIC 1),0 µg/mL
same,Peptide MIC during treatment with antibiotic,[13]; erythromycin […] (Conc./MIC 1/2),1 µg/mL
same,Peptide MIC during treatment with antibiotic,[13]; [24],4 µg/mL
same,Peptide MIC during treatment with antibiotic,[13]; [25],0 µg/mL
same,Peptide MIC during treatment with antibiotic,[13]; linezolid […] (Conc./MIC 1/2),1 µg/mL
same,Peptide MIC during treatment with antibiotic,[13]; linezolid […] (Conc./MIC 1/4),2 µg/mL
same,Peptide MIC during treatment with antibiotic,[13]; [26],2 µg/mL
same,Peptide MIC during treatment with antibiotic,[13]; [27],1 µg/mL
same,Peptide MIC during treatment with antibiotic,[13]; vancomycin […] (Conc./MIC 1/4),4 µg/mL
same,Peptide MIC during treatment with antibiotic,[13]; vancomycin […] (Conc./MIC 1/8),4 µg/mL
same,Peptide MIC during treatment with antibiotic,[14]; [28],4 µg/mL
same,Peptide MIC during treatment with antibiotic,[14]; [29],4 µg/mL
same,Peptide MIC during treatment with antibiotic,[14]; [30],2 µg/mL
same,Peptide MIC during treatment with antibiotic,[14]; [31],0 µg/mL
same,Peptide MIC during treatment with antibiotic,[14]; linezolid 32 μg/ml (Conc./MIC 1/8),4 µg/mL
same,Peptide MIC during treatment with antibiotic,[14]; linezolid 64 μg/ml (Conc./MIC 1/4),2 µg/mL
same,Peptide MIC during treatment with antibiotic,[14]; linezolid […] (Conc./MIC 1),0 µg/mL
same,Peptide MIC during treatment with antibiotic,[14]; linezolid […] (Conc./MIC 1/2),1 µg/mL
same,Peptide MIC during treatment with antibiotic,[14]; [26],0.25 µg/mL
same,Peptide MIC during treatment with antibiotic,[14]; [27],0 µg/mL
same,Peptide MIC during treatment with antibiotic,[14]; vancomycin […] (Conc./MIC 1/4),0.5 µg/mL
same,Peptide MIC during treatment with antibiotic,[14]; vancomycin […] (Conc./MIC 1/8),2 µg/mL
same,Peptide MIC during treatment with erythromycin,[15]; [28],4 µg/mL
same,Peptide MIC during treatment with erythromycin,[15]; [29],4 µg/mL
same,Peptide MIC during treatment with erythromycin,[15]; [30],2 µg/mL
same,Peptide MIC during treatment with erythromycin,[15]; [31],0 µg/mL
same,Peptide MIC during treatment with linezolid,[15]; [24],4 µg/mL
same,Peptide MIC during treatment with linezolid,[15]; [25],0 µg/mL
same,Peptide MIC during treatment with linezolid,[15]; linezolid […] (Conc./MIC 1/2),1 µg/mL
same,Peptide MIC during treatment with linezolid,[15]; linezolid […] (Conc./MIC 1/4),2 µg/mL
same,Peptide MIC during treatment with vancomycin,[15]; [26],2 µg/mL
same,Peptide MIC during treatment with vancomycin,[15]; [27],1 µg/mL
same,Peptide MIC during treatment with vancomycin,[15]; vancomycin […] (Conc./MIC 1/4),2 µg/mL
same,Peptide MIC during treatment with vancomycin,[15]; vancomycin […] (Conc./MIC 1/8),2 µg/mL
